From patent US20120021012A1, “NOVEL PHARMACEUTICAL USES FOR NANOPARTICLES” (CENTRE NATIONAL DE LA RECHERCHE SCIENTIFIQUE (C.N.R.S), priority 2008, published 2012)

System: human squamous carcinoma cell line HSC-2
Assay: MTT cell survival assay, HSC human cancer cell line
Type: cell-based
Details: paclitaxel applied 72 hours, AT84 and SG lines (FIG. 4)
Experimental: Cell survival was measured using a colorimetric method with 3-(4,5-dimethylthiazol-2-yl)-2,5-diphenyltetrazolium bromide (MTT). This molecule of yellow colour is reduced by mitochondrial dehydrogenase enzymes to a blue-coloured salt. This allows cell viability to be quantified in response to a treatment.
Cell survival was measured before and after exposure to different concentrations of SiC nanoparticles (0.1-0.5-1 mg/mL in a suspension of RPMI medium 10% FCS).
The cells were cultured in 96-well plates in the presence of SiC nanoparticles for 18 hours after which the media were replaced by standard culture media without any nanoparticles (RPMI medium 10% FCS, Sigma).
Cell viability was measured after different times (24, 48 and 72 hours). […]
Cell viability was measured by the difference in optical density at wavelengths of 450 and 504 nm, using a spectrophotometer connected to a computer system (Power Wave, Bio-Tek Instrument Inc.). The measured absorbency is then directly proportional to the number of living cells. The results are expressed as percentage survival measured under the initial conditions before exposure of the cells to the SiC nanoparticles. […]
Cell survival was measured using a colorimetric method with 3-(4,5-diemthylthiazol-2-yl)-2,5-diphenyltetrazolium bromide (MTT) such as described above in Example 1. […]
Cell viability was measured after 72 hours. […]

In the case of `CC(=O)O[C@H]1C(=O)[C@@]2(C)[C@H]([C@H](OC(=O)c3ccccc3)[C@]3(O)C[C@H](OC(=O)[C@H](O)[C@@H](NC(=O)c4ccccc4)c4ccccc4)C(C)=C1C3(C)C)[C@]1(OC(C)=O)CO[C@@H]1C[C@@H]2O` [paclitaxel], the “inhibition percentages of cell survival compared with the SiC nanoparticles” value is reported as “of the same order”.
